In patent publication US20100280118A1, “Methods for treating substance dependence” (The Scripps Research Institute, priority 2007, published 2010):
Marks after values point to notes of the source that are not given here.

Columns and labels:
[1] = tested on: cue-reactive, alcohol-dependent individuals; assay: Cue reactivity study, 1 week gabapentin 1200 mg vs placebo, alcohol and affective cue-induced craving; type: in vivo, human
Procedure: This Example describes the results of a study to examine the effectiveness of gabapentin 1200 mg for attenuating symptoms of protracted abstinence in a non treatment-seeking sample of cue-reactive, alcohol-dependent individuals. Subjects were 33 paid volunteers with current DSM-IV alcohol dependence and a strength of craving rating 1σ or greater for alcohol than water cues. Subjects were randomly assigned to gabapentin or placebo for 1-week and then participated in a within-subjects trial where each was exposed to standardized sets of pleasant, neutral, and unpleasant visual stimuli followed by alcohol or water cues. A key aspect of the study design is exposure to alcohol cues (sight and smell of the subject's favorite alcoholic beverage) without consumption. Alcohol consumption would be expected to mask the effects of any medication that targets symptoms of protracted abstinence, as either or both could attenuate such symptoms; the effects of alcohol and the drug to be tested would therefore be inextricably confounded. The design is therefore relatively novel in combining elicitation of craving while inducing both positive and negative affect (along with interaction effects) with non-consumptive alcohol cue exposure. As such it may be particularly well-suited for testing the effectiveness of pharmacological treatments intended to normalize the neurobiological imbalances associated with protracted abstinence in alcoholics.
Subject enrollment: The study was conducted at the University of Miami School of Medicine, Miami, Fla. and approved by that institution's Institutional Review Board as conforming to the ethical standards of the 1964 Declaration of Helsinki. Subjects provided written informed consent prior to participation. Subjects were non treatment-seeking paid volunteers recruited primarily through advertisements, meeting the Diagnostic and Statistical Manual of Mental Disorders, 4th Edition (DSM-IV; American Psychiatric Association, 1994) criteria for current alcohol dependence, abstinent from alcohol on the day of the study, as verified by Breath Alcohol Concentration (BAC), not in acute withdrawal as verified by a Clinical Institute Withdrawal Assessments for Alcohol (CIWA-Ar; Sullivan et al., Br J Addict 84:1353-1357, 1989) score of <8, and meeting the definition of “cue reactive”. An individual was considered cue reactive if his or her “strength of craving” score under a neutral affect condition (see Study Overview below) was ≧1 standard deviation (3 VAS rating scale points; see measures discussion) greater for alcohol than for water cues during a mini cue reactivity session. This is similar to the criterion described by Rubonis et al. (J. Stud. Alcohol. 55:487-494, 1994) to classify cue reactors. Exclusionary criteria consisted of clinically significant medical or psychiatric disorders including depression, anxiety, or dependence on substances other than alcohol and nicotine.
Study Overview and Experimental Design: Subjects meeting admission criteria were randomized to receive gabapentin 1200 mg or placebo. Because image-based affective cue reactivity was not as strong as we had anticipated, to improve statistical power we augmented the control group with untreated individuals from three otherwise-similar lab studies. Criteria for participation were the same in all cases. Dosages (matched in the placebo condition) were titrated as follows: 300 mg morning on day 1, 300 mg morning and also evening on day 2, 300 mg morning, midday and evening on day 3, and 300 mg morning and midday followed by 600 mg evening for days 4-7. On day 7 of double-blind medication, overall measures of mood, sleep, and craving were assessed. This one-week interval of chronic dosing is intended to model and predict the critical first week on medication in a Phase II or III clinical trial, when participants' experiences with sleep and mood, or side effects, can dramatically affect treatment adherence and risk for dropout. […]

[2] = tested on: non treatment-seeking volunteers with current cannabis and alcohol dependence; assay: Pilot laboratory study, one week gabapentin 1200 mg/d vs placebo; type: in vivo, human
Procedure: This Example describes treatment of subjects suffering from cannabis dependence with gabapentin. Subjects with DSM-IV cannabis dependence were enrolled in a clinical study of treatment with gabapentin. Earlier, in a pilot laboratory study, the safety and efficacy of gabapentin 1200 mg/d in non treatment-seeking volunteers with current cannabis and alcohol dependence involving were examined in one week of chronic dosing with double-blind, randomly assigned active drug or placebo. […] The results lend support to: 1) the safety and tolerability of our drug titration schedule and the steady state dose of gabapentin 1200 mg/d in outpatients with cannabis dependence; 2) the efficacy of gabapentin 1200 mg/d in treating disturbed sleep, a key symptom of cannabis withdrawal; and 3) our ability to recruit a sample of subjects with cannabis dependence who are willing to participate in clinical research involving medication. Based on the results from this pilot study, subjects with only cannabis dependence were then recruited and treated with gabapentin, as detailed below.

[3] = tested on: outpatients with alcohol dependence; assay: 12-week double-blind, placebo-controlled, dose-ranging study of gabapentin 900 or 1800 mg/day in alcohol dependence; type: in vivo, human; details: for Cohen's d, drinks per drinking day: interim analysis
Procedure: This example describes the study of gabapentin treatment of subjects suffering from alcohol dependence. A 12-week, double-blind, placebo-controlled, dose-ranging study was conducted with random assignment to gabapentin 900 mg/day, 1800 mg/day, or placebo. Subjects are outpatients with alcohol dependence. The 3 pharmacological treatment conditions were administered in conjunction with manual-guided behavioral counseling that incorporates strategies to increase motivation, abstinence, and medication compliance. Counseling and research assessments occurred weekly throughout the 12-week treatment phase. Post-treatment assessments occurred at Weeks 13, 24, and 36.
The criteria for inclusion are as follows: (1) Males or females over 18 years of age; (2) Meets DSM-IV criteria for current alcohol dependence; (3) Seeking research-based outpatient treatment for alcohol problems; (4) Abstinent from alcohol a minimum of 3 days to a maximum of 30 days at the time of randomization; and (5) Willing to attend 12 weekly study visits and 3 follow-up visits. The criteria for exclusion are as follows: (1) Currently meets DSM-IV criteria for dependence on substances other than alcohol, nicotine or caffeine; (2) Significant medical disorders that will increase potential risk or interfere with study participation, e.g., plasma […] >1.4 mg/dL; (3) Sexually active female subjects with childbearing potential who are pregnant, nursing or refuse to use a reliable method of birth control; (4) Meets DSM-IV criteria for a major AXIS I disorder other than alcohol dependence, including depressive and anxiety disorders, and is in need of, or currently undergoing, pharmacotherapy; (5) Inability to understand and/or comply with the provisions of the protocol and consent form; (6) Treatment with an investigational drug during the previous month; (7) Sensitivity to study drug as evidenced by adverse drug experiences with gabapentin or its ingredients; (8) Ongoing treatment with disulfuram (Antabuse), naltrexone (ReVia®), acamprosate (Campral®) or other medications that may affect study outcomes, e.g., anticonvulsants; (9) More than one month of abstinence prior to randomization; (10) Subjects who require medicated detoxification (Note: Subjects may proceed with study evaluation after completion of detoxification); (11) Subjects for whom treatment of alcoholism is being mandated by a legal authority; (12) Unable to identify at least one collateral informant to verify drinking status at baseline and monthly during study, and to assist in tracking subjects for follow-up assessments; or (13) Subjects who plan to move out of the geographic area served by the Clinic prior to study completion.
Primary outcome of the treatment was assesses with the following measures. Timeline Followback Interview (TLFB; Sobell and Sobell, 1992) provides quantity and frequency estimates of alcohol intake at baseline and throughout the study using a standard drinks format (Research Nurse, 20 minutes at screening and Week 24 and 36 follow-up visits, 5 minutes at weekly study visits). […] Therefore, TLFB data is supported by weekly breathalyzers and monthly collateral informant reports and GGT. If unresolved inconsistencies between sources occur, then the most negative outcome will be assumed accurate.
Secondary outcome of the treatment was assessed with the following measures. Alcohol Craving Questionnaire-Short Form (ACQ-SF; Singleton et al., 1994) provides a quick assessment of current drinking urges, difficulty resisting urges and anticipation of positive outcome or relief from negative affective state by drinking (baseline and every study visit, self report, 1-2 minutes). Beck Depression Inventory (BDI; Beck et al., 1961) is a self-rating of severity of depressive symptoms (baseline and every study visit, 5 minutes). Gamma glutamyl transferase (GGT) is used as a biochemical marker of alcohol abstinence or relapse. […]

[4] = tested on: outpatients with current cannabis dependence; assay: 12-week randomized, double-blind, placebo-controlled trial of gabapentin 1200 mg/d in cannabis dependence
[5] = gabapentin 1200 mg vs placebo, day 7, alcohol vs water cue, 0-20 rating
[6] = gabapentin 1200 mg vs placebo, day 7, alcohol vs water cue, VAS 0-20
[7] = gabapentin 1200 mg vs placebo, day 7, negative vs neutral affect cue, 0-20 rating
[8] = gabapentin 1200 mg vs placebo, day 7, negative vs neutral affect cue, VAS 0-20
[9] = gabapentin 1200 mg vs placebo, day 7, positive vs neutral affect cue, 0-20 rating
[10] = gabapentin 1200 mg vs placebo, day 7, positive vs neutral affect cue, VAS 0-20
[11] = % of subjects, gabapentin 1200 mg/d

NCC1(CC(=O)O)CCCCC1 [gabapentin, (1-aminomethyl)-1-cyclohexaneacetic acid]
symptoms generating the drug-placebo difference in symptom counts ([1]; 1 week, gabapentin 1200 mg vs placebo): dizziness (χ^2(1)=6.1, p<0.02) and fatigue
total symptom counts over the week on medication (mean) ([1]; SAFTEE-G, 1 week, gabapentin 1200 mg, standard deviation 2.7, n=30 assessed): 3.3
Bev x Gaba, Feel strong emotion (estimated model coefficient) [1, 5]: 1.15
Bev x Gaba, Like beverage (estimated model coefficient) [1, 5]: −0.25
Bev x Gaba, SAM Arousal (estimated model coefficient) [1, 5]: −1.79
Bev x Gaba, SAM Dominance (estimated model coefficient) [1, 5]: 0.81
Bev x Gaba, SAM Valence (estimated model coefficient) [1, 5]: 3.28*
Bev x Gaba, Craving Difficult to turn down (estimated model coefficient) [1, 6]: −1.31^††
Bev x Gaba, Craving Drink Now (estimated model coefficient) [1, 6]: −1.96^†
Bev x Gaba, Craving Make Things Perfect (estimated model coefficient) [1, 6]: 0.23
Bev x Gaba, Craving Strength (estimated model coefficient) [1, 6]: −2.16^†
Aff− x Gaba, Feel strong emotion (estimated model coefficient) [1, 7]: −1.29
Aff− x Gaba, Like beverage (estimated model coefficient) [1, 7]: 0.98
Aff− x Gaba, SAM Arousal (estimated model coefficient) [1, 7]: −4.92*
Aff− x Gaba, SAM Dominance (estimated model coefficient) [1, 7]: 1.30
Aff− x Gaba, SAM Valence (estimated model coefficient) [1, 7]: 1.25
Aff− x Gaba, Craving Difficult to turn down (estimated model coefficient) [1, 8]: 1.26
Aff− x Gaba, Craving Drink Now (estimated model coefficient) [1, 8]: 0.58
Aff− x Gaba, Craving Make Things Perfect (estimated model coefficient) [1, 8]: 0.20
Aff− x Gaba, Craving Strength (estimated model coefficient) [1, 8]: 0.96
Aff+ x Gaba, Feel strong emotion (estimated model coefficient) [1, 9]: −1.08
Aff+ x Gaba, Like beverage (estimated model coefficient) [1, 9]: −0.04
Aff+ x Gaba, SAM Arousal (estimated model coefficient) [1, 9]: −3.22^†
Aff+ x Gaba, SAM Dominance (estimated model coefficient) [1, 9]: 0.80
Aff+ x Gaba, SAM Valence (estimated model coefficient) [1, 9]: 0.21
Aff+ x Gaba, Craving Difficult to turn down (estimated model coefficient) [1, 10]: −1.34^††
Aff+ x Gaba, Craving Drink Now (estimated model coefficient) [1, 10]: 0.16
Aff+ x Gaba, Craving Make Things Perfect (estimated model coefficient) [1, 10]: 0.44
Aff+ x Gaba, Craving Strength (estimated model coefficient) [1, 10]: 0.25
ARCI scores on five drug-of-abuse groups (abuse potential) ([1]; gabapentin vs. placebo, n=28): no statistically significant differences
CBC, LFT, or urinalysis values [2]: no change from baseline
adverse drug complaints [2]: no adverse drug complaints of more than mild severity
BDI total score ([3]; 900 mg/d vs placebo): no significant effect
sleep disturbance (PSQI), effect size d ([3]; 900 mg/d vs placebo, p<0.01): −0.50
daytime dysfunction (PSQI), effect size d ([3]; 900 mg/d vs placebo, p<0.05): −0.27
Cohen's d, drinks per drinking day ([3]; 900 mg/d vs placebo): 0.82
negative affective symptoms (BDI), effect size d ([3]; 1800 mg/d relative to placebo, p<0.05): 0.33
daytime dysfunction (PSQI), effect size d ([3]; 1800 mg/d vs placebo, p<0.01): −0.43
Cohen's d, drinks per drinking day ([3]; 1800 mg/d vs placebo): 0.71
time the beneficial effect was sustained after completing treatment ([3]; complete study (n=150)): up to 12 weeks
deaths or serious drug-related adverse events ([3]; throughout the study): no deaths or serious drug-related adverse events
subjective sleep quality or PSQI summary score ([3]; treatment vs placebo, trend for 900 mg/d, p<0.08): no significant effect
deaths or terminations due to drug-related adverse events ([4]; 12 weeks): no deaths or terminations due to drug-related adverse events
Adverse event: Abdominal Pain [4, 11]: 25%
Adverse event: Decreased Appetite [4, 11]: 10%
Adverse event: Depression [4, 11]: 30%
Adverse event: Dizziness [4, 11]: 0%
Adverse event: Fatigue [4, 11]: 15%
Adverse event: Headache [4, 11]: 20%
Adverse event: Increased Appetite [4, 11]: 15%
Adverse event: Nausea [4, 11]: 15%
Adverse event: Nervousness [4, 11]: 25%
Adverse event: Other [4, 11]: 5%
average severity of AE's ([4]; both treatment groups, 2=mild): 2.0±0.7
number of AE's complained of per subject ([4]; gabapentin 1200 mg/d, 12 weeks, p=0.11 vs placebo): 4.0±6.7
